Experiments:
Experiment in all cases: relative viability (nuclei count vs DMSO), 5 days (fraction); higher = more cells survive
FG-4592 + Bortezomib = compound: Cc1nc(C(=O)NCC(=O)O)c(O)c2ccc(Oc3ccccc3)cc12 [FG-4592] + CC(C)C[C@H](NC(=O)[C@H](Cc1ccccc1)NC(=O)c1cnccn1)B(O)O [Bortezomib] (partner 0.002 µM)
In short: (§1)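 Medians of duplicate plates are given as relative viability. That measure is the nuclei count in treated wells divided by the count in vehicle wells. Counts were taken on 4× images of lung cancer cell lines in 1536-well plates, 5 days after pin-tool dosing the day after seeding with one drug alone or a fixed anchor-drug dose plus five library-drug doses (not always all listed) in √10 steps.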

IU1-47 + Bortezomib = compound: CC1=CC(=C(N1C2=CC=C(C=C2)Cl)C)C(=O)CN3CCCCC3 [IU1-47] + CC(C)C[C@H](NC(=O)[C@H](Cc1ccccc1)NC(=O)c1cnccn1)B(O)O [Bortezomib] (partner 0.002 µM)
In short: as §1

IU1-47 + Crizotinib = compound: CC1=CC(=C(N1C2=CC=C(C=C2)Cl)C)C(=O)CN3CCCCC3 [IU1-47] + C[C@@H](Oc1cc(-c2cnn(C3CCNCC3)c2)cnc1N)c1c(Cl)ccc(F)c1Cl [Crizotinib] (partner 1 µM)
In short: as §1

FG-4592 + AZD7762 = compound: Cc1nc(C(=O)NCC(=O)O)c(O)c2ccc(Oc3ccccc3)cc12 [FG-4592] + NC(=O)Nc1cc(-c2cccc(F)c2)sc1C(=O)N[C@H]1CCCNC1 [AZD7762] (partner 0.2 µM)
In short: as §1

| Cell Line | relative viability (FG-4592 + Bortezomib; first compound 0.08 µM) | relative viability (FG-4592 + Bortezomib; first compound 0.253 µM) | relative viability (FG-4592 + Bortezomib; first compound 0.8 µM) | relative viability (FG-4592 + Bortezomib; first compound 2.53 µM) | relative viability (FG-4592 + Bortezomib; first compound 8 µM) | relative viability (IU1-47 + Bortezomib; first compound 0.08 µM) | relative viability (IU1-47 + Bortezomib; first compound 0.253 µM) | relative viability (IU1-47 + Bortezomib; first compound 0.8 µM) | relative viability (IU1-47 + Bortezomib; first compound 2.53 µM) | relative viability (IU1-47 + Bortezomib; first compound 8 µM) | relative viability (IU1-47 + Crizotinib; first compound 0.08 µM) | relative viability (IU1-47 + Crizotinib; first compound 0.253 µM) | relative viability (IU1-47 + Crizotinib; first compound 0.8 µM) | relative viability (IU1-47 + Crizotinib; first compound 2.53 µM) | relative viability (IU1-47 + Crizotinib; first compound 8 µM) | relative viability (FG-4592 + AZD7762; first compound 0.253 µM) | relative viability (FG-4592 + AZD7762; first compound 2.53 µM) | relative viability (FG-4592 + AZD7762; first compound 8 µM) | relative viability (FG-4592 + AZD7762; first compound 0.08 µM) | relative viability (FG-4592 + AZD7762; first compound 0.8 µM) |
| --- | --- | --- | --- | --- | --- | --- | --- | --- | --- | --- | --- | --- | --- | --- | --- | --- | --- | --- | --- | --- |
| NCI-H1299 | 1.07 | 0.993 | 0.951 | 1 | 1.06 | 1.08 | 1.06 | 1.09 | 0.989 | 0.945 | 0.965 | 0.93 | 0.977 | 0.972 | 0.834 | – | – | – | – | – |
| NCI-H1650 | 0.207 | 0.238 | 0.23 | 0.205 | 0.186 | 0.194 | 0.171 | 0.22 | 0.203 | 0.195 | 0.978 | 0.969 | 0.802 | 1.16 | 0.857 | – | – | – | – | – |
| NCI-H1793 | – | – | – | – | – | – | – | – | – | – | – | – | – | – | – | 0.48 | 0.696 | 0.37 | – | – |
| COR-L 105 | 0.75 | 0.725 | 0.796 | 0.807 | 0.674 | 1.23 | 1.01 | 0.851 | 0.899 | 0.708 | 0.793 | 0.839 | 0.767 | 0.94 | 0.627 | – | – | – | – | – |
| NCI-H2228 | 0.928 | 0.872 | 0.786 | 1.1 | 0.737 | 1.25 | 0.922 | 0.949 | 1.1 | 0.932 | 0.524 | 0.455 | 0.449 | 0.555 | 0.448 | – | – | – | – | – |
| NCI-H1648 | – | – | – | – | – | – | – | – | – | – | – | – | – | – | – | 0.662 | 0.714 | 0.921 | 0.622 | – |
| NCI-H661 | 0.637 | 0.858 | 0.723 | 0.682 | 0.638 | 0.962 | 0.944 | 0.896 | 0.564 | 0.732 | 1.21 | 0.975 | 0.981 | 1.06 | 1.12 | – | – | – | – | – |
| NCI-H1563 | 0.647 | 0.843 | 0.751 | 0.8 | 0.661 | 0.822 | 0.831 | 0.885 | 0.775 | 0.552 | 0.877 | 0.791 | 0.882 | 0.86 | 0.802 | – | – | – | – | – |
| A549 | – | – | – | – | – | – | – | – | – | – | 0.685 | 0.847 | 0.607 | 0.612 | 0.579 | – | – | – | – | – |
| NCI-H522 | – | – | – | – | – | – | – | – | – | – | – | – | – | – | – | 0.717 | 0.666 | 0.819 | 0.78 | – |
| NCI-H2170 | – | – | – | – | – | – | – | – | – | – | 1.42 | 1.44 | 1.26 | 1.11 | 1.25 | 0.834 | 0.817 | 0.643 | 0.755 | 0.816 |
| SW 900 | – | – | – | – | – | – | – | – | – | – | – | – | – | – | – | 0.545 | 0.614 | 0.541 | – | – |
| NCI-H1395 | – | – | – | – | – | – | – | – | – | – | – | – | – | – | – | 0.396 | 0.385 | 0.396 | 0.446 | 0.413 |
| IA-LM | 0.914 | 0.75 | 0.814 | 0.653 | 0.405 | 0.917 | 0.899 | 0.904 | 0.782 | 0.824 | – | 0.974 | 0.942 | 1.1 | 0.644 | – | – | – | – | – |
| NCI-H358 | – | – | – | – | – | – | – | – | – | – | 0.532 | 0.607 | 0.516 | – | 0.495 | 0.502 | 0.502 | 0.458 | 0.44 | 0.55 |
| EBC-1 | 0.63 | 0.531 | 0.57 | 0.546 | 0.688 | 0.516 | 0.528 | 0.535 | 0.715 | 0.542 | 0.239 | 0.202 | 0.209 | 0.172 | 0.229 | – | – | – | – | – |
